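Where inhibition never reached the appropriate level, the endpoint shown equals the highest concentration tested. Otherwise, values were interpolated linearly from a five-concentration, 48-hour dose response in 96-well plates. The concentration for 50% growth inhibition is given as GI50.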 Active and inactive are the calls of the source. No stated cut-off is given here; in the data, active = GI50 up to about 1.1 µM and inactive = higher.
Tests used:
Test in all cases: inhibition of tumour cell growth, NCI panel, 48 h
786-0 = test system: 786-0
A498 = test system: A498
A549 = test system: A549
ACHN = test system: ACHN
BT-549 = test system: BT-549
CAKI-1 = test system: CAKI-1
CCRF-CEM = test system: CCRF-CEM
COLO 205 = test system: COLO 205
DU-145 = test system: DU-145
EKVX = test system: EKVX
HCC 2998 = test system: HCC 2998
HCT-116 = test system: HCT-116
HCT-15 = test system: HCT-15
HL-60 = test system: HL-60
HOP-62 = test system: HOP-62
HOP-92 = test system: HOP-92
Hs-578T = test system: Hs-578T
IGROV-1 = test system: IGROV-1
K562 = test system: K562
KM12 = test system: KM12
LOX IMVI = test system: LOX IMVI
M14 = test system: M14
MCF7 = test system: MCF7
MDA-MB-231 = test system: MDA-MB-231
MDA-MB-435 = test system: MDA-MB-435
MDA-N = test system: MDA-N
MOLT-4 = test system: MOLT-4
Malme-3M = test system: Malme-3M
NCI-H226 = test system: NCI-H226
NCI-H23 = test system: NCI-H23
NCI-H460 = test system: NCI-H460
NCI-H522 = test system: NCI-H522
NCI/ADR-RES = test system: NCI/ADR-RES
OVCAR-3 = test system: OVCAR-3
OVCAR-4 = test system: OVCAR-4
OVCAR-5 = test system: OVCAR-5
OVCAR-8 = test system: OVCAR-8
PC-3 = test system: PC-3
RPMI-8226 = test system: RPMI-8226
RXF 393 = test system: RXF 393
SF-268 = test system: SF-268
SF-295 = test system: SF-295
SF-539 = test system: SF-539
SK-MEL-28 = test system: SK-MEL-28
SK-MEL-2 = test system: SK-MEL-2
SK-MEL-5 = test system: SK-MEL-5
SK-OV-3 = test system: SK-OV-3
SN12C = test system: SN12C
SNB-19 = test system: SNB-19
SNB-75 = test system: SNB-75
SR = test system: SR
SW-620 = test system: SW-620
T47D = test system: T47D
TK-10 = test system: TK-10
U-251 = test system: U-251
UACC-257 = test system: UACC-257
UACC-62 = test system: UACC-62
UO-31 = test system: UO-31
HT-29 = test system: HT-29

## Nc1ncc(Cl)c(NCC2(CO)CC(CCc3ccccc3)C2)n1 (stereo unspecified)
786-0
  GI50: > 100 µM (inactive)
A498
  GI50: > 100 µM (inactive)
A549
  GI50: > 21.1 µM (inactive)
ACHN
  GI50: 34 µM (inactive)
BT-549
  GI50: > 100 µM (inactive)
CAKI-1
  GI50: 12 µM (inactive)
CCRF-CEM
  GI50: > 67.8 µM (inactive)
COLO 205
  GI50: > 100 µM (inactive)
DU-145
  GI50: > 100 µM (inactive)
EKVX
  GI50: > 24.9 µM (inactive)
HCC 2998
  GI50: > 100 µM (inactive)
HCT-116
  GI50: 3.7 µM (inactive)
HCT-15
  GI50: > 100 µM
HL-60
  GI50: 1.13 µM (inactive)
HOP-62
  GI50: > 100 µM (inactive)
HOP-92
  GI50: 5.69 µM (inactive)
Hs-578T
  GI50: > 100 µM (inactive)
IGROV-1
  GI50: > 100 µM (inactive)
K562
  GI50: 0.321 µM (active)
KM12
  GI50: > 100 µM (inactive)
LOX IMVI
  GI50: 0.785 µM (active)
M14
  GI50: > 100 µM (inactive)
MCF7
  GI50: 0.438 µM (active)
MDA-MB-231
  GI50: > 100 µM (inactive)
MDA-MB-435
  GI50: > 100 µM (inactive)
MDA-N
  GI50: > 100 µM (inactive)
MOLT-4
  GI50: 1.82 µM (inactive)
Malme-3M
  GI50: > 100 µM (inactive)
NCI-H226
  GI50: > 100 µM (inactive)
NCI-H23
  GI50: > 100 µM (inactive)
NCI-H460
  GI50: > 55 µM (inactive)
NCI-H522
  GI50: > 76.2 µM (inactive)
NCI/ADR-RES
  GI50: 3.61 µM (inactive)
OVCAR-3
  GI50: > 100 µM (inactive)
OVCAR-4
  GI50: > 100 µM (inactive)
OVCAR-5
  GI50: > 100 µM (inactive)
OVCAR-8
  GI50: 44 µM (inactive)
PC-3
  GI50: > 100 µM (inactive)
RPMI-8226
  GI50: 2.79 µM (inactive)
RXF 393
  GI50: > 100 µM (inactive)
SF-268
  GI50: > 100 µM (inactive)
SF-295
  GI50: 5.2 µM (inactive)
SF-539
  GI50: > 100 µM (inactive)
SK-MEL-28
  GI50: > 100 µM (inactive)
SK-MEL-2
  GI50: > 100 µM (inactive)
SK-MEL-5
  GI50: 0.38 µM (active)
SK-OV-3
  GI50: > 100 µM (inactive)
SN12C
  GI50: > 100 µM (inactive)
SNB-19
  GI50: > 100 µM (inactive)
SNB-75
  GI50: 46.2 µM (inactive)
SR
  GI50: 2.38 µM (inactive)
SW-620
  GI50: > 100 µM (inactive)
T47D
  GI50: 1.07 µM (active)
TK-10
  GI50: 14.4 µM (inactive)
U-251
  GI50: 44.6 µM (inactive)
UACC-257
  GI50: > 100 µM (inactive)
UACC-62
  GI50: > 100 µM (inactive)
UO-31
  GI50: > 100 µM (inactive)

## CCN(CC)c1ccc(/C=C/C2=NN(c3cccc(S(=O)(=O)O)c3)C3(C2)SCC(=O)N3c2nc3ccccc3s2)cc1 (stereo unspecified)
786-0
  GI50: 63.8 µM (inactive)
A498
  GI50: 27.5 µM (inactive)
A549
  GI50: 32.7 µM (inactive)
ACHN
  GI50: 25.8 µM (inactive)
BT-549
  GI50: 60.1 µM (inactive)
CAKI-1
  GI50: 76.6 µM (inactive)
CCRF-CEM
  GI50: 21.4 µM (inactive)
COLO 205
  GI50: 24.1 µM (inactive)
DU-145
  GI50: 27.4 µM (inactive)
EKVX
  GI50: 36 µM (inactive)
HCC 2998
  GI50: 35.2 µM (inactive)
HCT-116
  GI50: 45.1 µM (inactive)
HCT-15
  GI50: 45.6 µM
HL-60
  GI50: 24 µM (inactive)
HOP-92
  GI50: 44.9 µM (inactive)
HT-29
  GI50: 36.6 µM (inactive)
Hs-578T
  GI50: 33.3 µM (inactive)
IGROV-1
  GI50: 41.7 µM (inactive)
K562
  GI50: 17.7 µM (inactive)
KM12
  GI50: 23.9 µM (inactive)
LOX IMVI
  GI50: 45.6 µM (inactive)
M14
  GI50: 41.8 µM (inactive)
MCF7
  GI50: 25.6 µM (inactive)
MDA-MB-231
  GI50: 55.1 µM (inactive)
MDA-MB-435
  GI50: 23.6 µM (inactive)
MDA-N
  GI50: 39 µM (inactive)
MOLT-4
  GI50: 22 µM (inactive)
Malme-3M
  GI50: 24.7 µM (inactive)
NCI-H226
  GI50: 16.8 µM (inactive)
NCI-H23
  GI50: 37.2 µM (inactive)
NCI-H460
  GI50: 36.5 µM (inactive)
NCI-H522
  GI50: 18.5 µM (inactive)
NCI/ADR-RES
  GI50: > 100 µM (inactive)
OVCAR-4
  GI50: 23.4 µM (inactive)
OVCAR-5
  GI50: > 100 µM (inactive)
OVCAR-8
  GI50: 33.6 µM (inactive)
PC-3
  GI50: 25.8 µM (inactive)
RPMI-8226
  GI50: 17.9 µM (inactive)
RXF 393
  GI50: > 100 µM (inactive)
SF-268
  GI50: 40.5 µM (inactive)
SF-539
  GI50: 33 µM (inactive)
SK-MEL-28
  GI50: 80.4 µM (inactive)
SK-MEL-2
  GI50: 40.1 µM (inactive)
SK-MEL-5
  GI50: 21.1 µM (inactive)
SN12C
  GI50: 59 µM (inactive)
SNB-19
  GI50: 39.8 µM (inactive)
SNB-75
  GI50: 74.3 µM (inactive)
SR
  GI50: 26.4 µM (inactive)
SW-620
  GI50: 42.9 µM (inactive)
T47D
  GI50: 17.6 µM (inactive)
TK-10
  GI50: 23.1 µM (inactive)
U-251
  GI50: 25.1 µM (inactive)
UACC-257
  GI50: 30.5 µM (inactive)
UACC-62
  GI50: 37.7 µM (inactive)
UO-31
  GI50: 29.9 µM (inactive)

## C/C=C/C(CC(O)(C(F)(F)F)C(F)(F)F)=N/NC(N)=S
786-0
  GI50: > 10 µM (inactive)
A498
  GI50: > 10 µM (inactive)
A549
  GI50: > 10 µM (inactive)
ACHN
  GI50: > 10 µM (inactive)
BT-549
  GI50: > 10 µM (inactive)
CAKI-1
  GI50: > 10 µM (inactive)
CCRF-CEM
  GI50: > 10 µM (inactive)
COLO 205
  GI50: > 10 µM (inactive)
DU-145
  GI50: > 10 µM (inactive)
EKVX
  GI50: > 10 µM (inactive)
HCC 2998
  GI50: > 10 µM (inactive)
HCT-116
  GI50: > 10 µM (inactive)
HCT-15
  GI50: > 10 µM
HL-60
  GI50: > 10 µM (inactive)
HOP-62
  GI50: > 10 µM (inactive)
HOP-92
  GI50: > 10 µM (inactive)
HT-29
  GI50: > 10 µM (inactive)
Hs-578T
  GI50: > 10 µM (inactive)
IGROV-1
  GI50: > 10 µM (inactive)
K562
  GI50: > 10 µM (inactive)
KM12
  GI50: > 10 µM (inactive)
LOX IMVI
  GI50: > 10 µM (inactive)
M14
  GI50: > 10 µM (inactive)
MCF7
  GI50: > 10 µM (inactive)
MDA-MB-231
  GI50: > 10 µM (inactive)
MDA-MB-435
  GI50: > 10 µM (inactive)
MDA-N
  GI50: > 10 µM (inactive)
MOLT-4
  GI50: > 10 µM (inactive)
Malme-3M
  GI50: > 10 µM (inactive)
NCI-H226
  GI50: > 10 µM (inactive)
NCI-H23
  GI50: > 10 µM (inactive)
NCI-H460
  GI50: > 10 µM (inactive)
NCI-H522
  GI50: > 10 µM (inactive)
NCI/ADR-RES
  GI50: > 10 µM (inactive)
OVCAR-3
  GI50: > 10 µM (inactive)
OVCAR-4
  GI50: > 10 µM (inactive)
OVCAR-5
  GI50: > 10 µM (inactive)
OVCAR-8
  GI50: > 10 µM (inactive)
PC-3
  GI50: > 10 µM (inactive)
RPMI-8226
  GI50: > 10 µM (inactive)
RXF 393
  GI50: > 10 µM (inactive)
SF-268
  GI50: > 10 µM (inactive)
SF-295
  GI50: > 10 µM (inactive)
SF-539
  GI50: > 10 µM (inactive)
SK-MEL-28
  GI50: > 10 µM (inactive)
SK-MEL-2
  GI50: > 10 µM (inactive)
SK-MEL-5
  GI50: > 10 µM (inactive)
SK-OV-3
  GI50: > 10 µM (inactive)
SN12C
  GI50: > 10 µM (inactive)
SNB-19
  GI50: > 10 µM (inactive)
SNB-75
  GI50: > 10 µM (inactive)
SR
  GI50: > 10 µM (inactive)
SW-620
  GI50: > 10 µM (inactive)
T47D
  GI50: > 10 µM (inactive)
TK-10
  GI50: > 10 µM (inactive)
U-251
  GI50: > 10 µM (inactive)
UACC-257
  GI50: > 10 µM (inactive)
UACC-62
  GI50: > 10 µM (inactive)

Reference: ChEMBL document CHEMBL1201862, “PubChem BioAssay data set” (2004)
